According to paper PMC4109680, “Identification and Preclinical Pharmacology of the γ-Secretase Modulator BMS-869780” (International Journal of Alzheimer's Disease, 2014):

System: Aβ peptides (H4-APPsw)
Test: Aβ peptide profile in H4-APPsw cultures by MALDI-TOF mass spectrometry and urea gel western blot
Format: cell-based, human
Procedure: For western blotting of Aβ peptides from H4-APPsw cell cultures, Aβ was immunoprecipitated directly from the cell culture medium and was eluted from the protein G beads by addition of lithium dodecyl sulfate (LDS) electrophoresis sample buffer (Invitrogen). Aβ peptides were separated by gel electrophoresis in the presence of 8 M urea, transferred to PVDF membrane, and detected by western blotting using monoclonal 26D6-HRP conjugate.
H4-APPsw cell cultures were grown in T-75 flasks until 75% confluent and rinsed with Dulbecco's phosphate buffered saline (DPBS; Gibco cat number 14109), and 20 mL of DMEM supplemented with L-glutamine (2 mM), geneticin, penicillin, streptomycin, and DMSO with or without BMS-869780 was added (final concentration of DMSO was 0.2%). After incubation for 24 hours at 37°C in 5% CO2, culture medium was removed, centrifuged to remove cells, and frozen in aliquots at −80°C. For immunoprecipitation, aliquots of cell medium (4 mL) were thawed, followed by the addition of protease inhibitor cocktail (Sigma P-8340) to a final concentration of 1%, 60 ng of [^15N]-Aβ1-40 synthetic peptide (rPeptide, 1101-1, Athens, GA), 30 μg of monoclonal 26D6, and 15 μg of monoclonal 4G8. After incubation for 20 min on ice, 80 μL of protein G agarose beads (Pierce Rockford, IL) was added, and incubation was continued overnight at 4°C. […]
Figure 3 BMS-869780 increased the levels of the shorter peptides Aβ1-38 and Aβ1-37. (a) Top panel: an equimolar mix of synthetic peptides Aβ1-37, Aβ1-38, Aβ1-39, Aβ1-40, [^15N]-Aβ1-40, and Aβ1-42 was evaluated by MALDI-TOF mass spectrometry. H4-APPsw cell cultures were treated with vehicle (0.1% DMSO—middle panel) or BMS-869780 (100 nM—bottom panel), [^15N]-Aβ1-40 was added, and Aβ peptides were immunoprecipitated and evaluated by MALDI-TOF mass spectrometry. […] Aβ peptides were separated by gel electrophoresis in the presence of urea and detected by western blotting. […]

For `COc1cc(Nc2nc3n(n2)CCCC[C@H]3c2ccc(F)cc2)ccc1-n1cnc(Cl)c1` [BMS-869780], the “Aβ1-37 and Aβ1-38 levels by MALDI mass spectrometry” value (100 nM) was “dramatically increased”, the “Aβ1-40 and Aβ1-42 levels by MALDI mass spectrometry” value (100 nM) was “essentially undetectable” and the “Aβ1-37 and Aβ1-38 levels by western blot” value (100 nM and 10 nM) was “Increased levels”.
